The results in this text go back to patent US20080038198A1, “Method Of Screening Molecule Associated With Psychiatric Disorder” (MITSUBISHI PHARMA CORPORATION, priority 2004, published 2008).

Format in all cases: in vivo, Caenorhabditis elegans
The test system of assay [1] is nematodes. Put plainly: imipramine treatment: number of eggs laid during 90 minutes. As to the method:
Nematodes washed with S-basal buffer were transferred onto a 35-mm assay plate prepared by applying imipramine (hereinafter abbreviated as “IMI”) in the same manner as that used for MAP, and the number of eggs laid during 90 minutes was counted. Five nematodes were transferred to each plate, and the count was obtained for each plate.

Assay [2] relates to nematodes. The experiment in a line: slowing response: number of body bends over 20 seconds on drug-containing assay plate. To be noted: acute treatment on plate containing no feed. The method, then:
Nematodes were bred on a lawn of E. coli OP50 coated on a 60-mm NGM plate (Genetics, 77, pp. 71-94, 1974) in an incubator at 20° C.
MAP hydrochloride was dissolved in sterilized pure water at a 100-fold concentration, and 50 μL of the solution was applied to a 35-mm NGM plate (5 mL). As a control group, sterilized water used as a solvent was similarly applied to prepare an assay plate. Apomorphine (hereinafter also abbreviated as “APO”) dissolved in 0.1% aqueous ascorbic acid as a solvent was applied as a solution of 100-fold concentration in a similar manner to prepare an assay plate. For a control group, 0.1% aqueous ascorbic acid was used. The periphery of each assay plate was applied with a 3.5 mol/L sucrose solution to prevent nematodes from invading the back of the plate. Adult-stage nematodes bred on the E. coli lawn were washed with S-basal buffer (Genetics, 77, pp. 71-94, 1974), then transferred to each of the aforementioned assay plates, and left at room temperature with light shielding for one hour in the MAP treatment or 30 minutes in the APO treatment, and the number of body bends over 20 seconds was counted under a stereoscopic microscope. […]

In assay [3] the test system is nematodes. Put plainly: behavioral sensitization analysis: MAP pretreatment, washout on E. coli lawn, then drug challenge and body bend count. As to the method: MAP hydrochloride was dissolved in sterilized pure water at a 100-fold concentration, and 50 μL of the solution was applied to a 35-mm NGM plate (5 mL). As a control group, sterilized water used as a solvent was similarly applied to prepare an assay plate. Apomorphine (hereinafter also abbreviated as “APO”) dissolved in 0.1% aqueous ascorbic acid as a solvent was applied as a solution of 100-fold concentration in a similar manner to prepare an assay plate. For a control group, 0.1% aqueous ascorbic acid was used. The periphery of each assay plate was applied with a 3.5 mol/L sucrose solution to prevent nematodes from invading the back of the plate. Adult-stage nematodes bred on the E. coli lawn were washed with S-basal buffer (Genetics, 77, pp. 71-94, 1974), then transferred to each of the aforementioned assay plates, and left at room temperature with light shielding for one hour in the MAP treatment or 30 minutes in the APO treatment, and the number of body bends over 20 seconds was counted under a stereoscopic microscope. In the behavioral sensitization analysis, nematodes treated on the MAP-containing NGM plate for one hour were returned to the E. coli lawn, bred at 20° C. for a predetermined time and then treated with various drugs, and their behavior was observed.

In assay [4] the test system is nematodes. Put plainly: screening for chemical substance inhibiting establishment of MAP-induced behavioral sensitization. To be noted: ondansetron 1 or 10 μM with 300 μM MAP and overnight; MAP challenge next day. As to the method:
In an incubator inside of which was maintained at 20° C., nematodes were bred on an Escherichia coli lawn prepared by applying the E. coli OP50 strain on a 60-mm NGM plate (Genetics, 77, pp. 71-94, 1974).
MAP hydrochloride was dissolved in pure water to prepare a 30 mM solution, and 50 μL of the solution was applied to a 35-mm NGM plate (5 mL) to prepare a 300 μM MAP plate. This MAP plate was further applied with 50 μL of an ondansetron solution (0.1 or 1 mM) dissolved in 100 mM NaCl or 0.1 N hydrochloric acid and adjusted to neutral pH by using NaOH to complete an assay plate. Nematodes (adults) bred on the Escherichia coli lawn were washed with S-basal buffer (Genetics, 77, pp. 71-94, 1974) for a short period of time, and then incubated on each of the aforementioned assay plates at 20° C. for one hour with light shielding. For this procedure, the periphery of each assay plate was applied with a 3.5 M sucrose solution to prevent nematodes from invading the back of the assay plate. […] On the following day, the nematodes were washed with S-basal buffer for a short period of time and transferred onto a MAP challenge plate prepared by applying 50 μL of a 10 μM MAP solution on a 35-mm NGM plate (5 mL), and the number of body bends over 20 seconds was counted under a stereoscopic microscope.

Entries after “also recorded” stand apart in the source; their conditions may differ.

As to `CN(C)CCCN1c2ccccc2CCc2ccccc21` [IMI, imipramine], the egg laying behavior entry in the assay with nematodes [1] (IMI applied on NGM plate, eggs laid during 90 minutes) is listed as “increased egg laying behavior in a concentration-dependent manner; also recorded: promoted egg laying in a concentration-dependent manner”.
On to `CN[C@@H](C)Cc1ccccc1` [MAP, methamphetamine], for which the “locomotion (slowing response)” value in the assay with nematodes [2] was “inhibited locomotion of nematodes in a concentration-dependent manner; also recorded: inhibited the locomotion in a concentration-dependent manner”. For the same compound, in the assay on nematodes [3] (300 μmol/L MAP experienced on the previous day, MAP challenge next day), the “susceptibility to MAP-induced slowing response (establishment of behavioral sensitization)” value was “increased susceptibility to a treatment with MAP was observed; also recorded: the susceptibility was increased”. In the assay with nematodes [3] (MAP pretreatment on previous day at various concentrations), the “dependence of establishment of behavioral sensitization on MAP pretreatment concentration” value is “dependent on the MAP concentration used for pretreatment; also recorded: dependent on the concentration of MAP experienced on the previous day”. Also, the “APO-induced slowing response after MAP pretreatment (cross of behavioral sensitization)” value in the assay with nematodes [3] (MAP pretreatment, APO challenge) is “increased susceptibility to APO and induced slowing responses even at a low concentration; also recorded: enhanced by an MAP pretreatment”. Moreover, the “duration of MAP-induced behavioral sensitization” value in the assay on nematodes [3] (MAP washout period from pretreatment to challenge) is recorded as “at least 2 days”. The “influence of MAP pretreatment on IMI-induced egg-laying behavior” value in the assay on nematodes [1] (MAP treatment on the previous day, IMI challenge) is recorded as “had no effect on IMI-induced egg-laying behavior; also recorded: had no influence on the egg-laying behavior promoted by IMI”.
As for `CN1CCc2cccc3c2[C@H]1Cc1ccc(O)c(O)c1-3` [APO, Apomorphine], the “locomotion (slowing response)” value with nematodes [2] is given as “induced slowing responses in a concentration-dependent manner; also recorded: inhibited the locomotion in a concentration-dependent manner”.
As to `Cc1nccn1CC1CCc2c(c3ccccc3n2C)C1=O` (stereo not drawn) [ondansetron], the “establishment of MAP-induced behavioral sensitization” value in the assay on nematodes [4] is “inhibition of establishment of MAP-induced behavioral sensitization; also recorded: exhibits an antagonistic action on the establishment of MAP-induced behavioral sensitization”.
